Measurements reported in a melting point compilation (Tetko et al.; mined from patent text by program, amines drawn as free bases though some values may be those of a salt).

Compound | melting point
CNC(=Nc1cccc(CN(C)C)n1)NC#N | 180 to 181 °C
Cc1ccsc1CNC(=O)C(=O)NCCc1ccccn1 | 122 to 124 °C
O=C(c1cc(=O)c2ccc(OCc3ccccc3)cc2[nH]1)N1CCC(Cc2ccccc2)CC1 | 228 °C
CS(=O)(=O)c1sc(S(N)(=O)=O)cc1CCO | 120 to 124 °C
Cc1nc(CNC(=O)c2sc(-n3cnn(Cc4ccc(F)cc4)c3=O)cc2C)cs1 | 148 to 150 °C
ClC(Cl)(Cl)c1cnnc2ccccc12 | 137 °C
CN1C(C)(C)CC(O)C(O)C1(C)C (stereo not drawn) | 78 °C
CS(=O)(=O)Nn1c(=O)[nH]c2cc([N+](=O)[O-])c(NC3CCCC3)cc2c1=O | 146 to 155 °C
CC(=O)c1ccc(NCCCN2CCC(c3noc4cc(F)ccc34)CC2)c(O)c1 | 150 to 152 °C
O=C(Cl)c1c(Br)c(Br)c([N+](=O)[O-])c2c1OCCO2 | 215 °C
O=C(CSc1ccccc1)c1ccccc1 | 51 to 52 °C
CCOC(=O)c1cnn2c1nc(OCCCN(C)C)c1cnc3c(cnn3CC)c12 | 106 to 107 °C
COc1ccc(N2CCN(c3c(C)c(C)c4c(c3C)C(c3ccc(C)nc3)C(C)(C)O4)CC2)cc1 (stereo not drawn) | 131 to 133 °C
NC(=O)Nc1cccc2c1C(=O)c1c-2n[nH]c1-c1cccs1 | 214 °C
CCCOc1ccc2c(c1)C(=O)C(C(=O)OC)=C2c1ccc2c(c1)OCO2 | 125 to 126 °C
O=C(O)C(Cl)(Cl)CCCCCCCCCCCCBr | 59 to 60 °C
CCn1cc(C(=O)O)c(=O)c2cc(F)c(N3CCN(C)C(c4ccsc4)C3)cc21 (stereo not drawn) | 226 to 228 °C
N#Cc1ccc(C=CC(=O)c2ccc(O)c(CC(=O)O)c2)cc1 | 249 °C
CCOC(=O)Cc1nc(-c2cc(C(C)(C)C)c(O)c(C(C)(C)C)c2)oc1C | 103 to 105 °C
COc1cc(C(=O)NS(=O)(=O)c2ccccc2)ccc1Cn1nc(OC)c2ccc(NC(=O)OC3CCCC3)cc21 | 246 to 248 °C
CCC1=NN=C(CC)NN1 | 118 to 120 °C
Cc1oc(-c2ccccc2)nc1COc1ccc(Cn2cc(CCC(=O)O)c(O)n2)cc1 | 197 to 198 °C
CC(C)(C)OC(=O)N[C@@H](Cc1ccccc1)C(=O)NCCCN1CCN(CCCNc2cccc3c2C(=O)c2ccccc2C3=O)CC1 | 168 °C
Cc1cc(Oc2ccc(C(=O)C=CC(=O)O)cc2)ccc1Cl | 135 to 136 °C

Compound | melting point
Fc1ccc(-c2nc3ccccn3c2-c2ccnc(-c3ccc(CN4CCOCC4)cc3)c2)cc1Cl | 189 °C
COc1cc(OC)nc(Oc2ccccc2C(=O)NS(=O)(=O)C(C)C)n1 | 128 to 130 °C
COCCNC(=O)c1ccc2c(c1)C(=NNc1ccc(S(N)(=O)=O)cc1)C(=O)N2 | > 230 °C
Cc1ccc(C(=O)C2(O)CCCCC2)cc1C | 103 to 104 °C
COc1ccc(CNc2ncnc(Cl)c2N)cc1OC | 185 to 188 °C
Cc1nc(N)c2nc(CO)n(NC3CCOCC3)c2c1C | > 250 °C
CCOc1c(C(F)(F)F)cc([N+](=O)[O-])c(Nc2ncc(C(F)(F)F)cc2Cl)c1[N+](=O)[O-] | 106 to 108 °C
Cc1nnnn1CC(C)n1nnc2cc3c(=O)n(C4CC4)nnc3cc2c1=O (stereo not drawn) | 208 to 211 °C
CC(=O)c1ccc(OC(C)CCCCC(=O)O)cc1O (stereo not drawn) | 116 to 118 °C
NCc1cccc(Cn2ccc(OCc3ccc(F)cc3)c(Br)c2=O)c1 | 127 to 139 °C
CC(=O)NNc1ccnc2c(NC(=O)c3c(Cl)cccc3Cl)cc(C)c(C)c12 | > 250 °C
CN(C)CCNc1nc(Nc2cccc(NS(C)(=O)=O)c2)nc2[nH]cnc12 | 191 to 195 °C
O=c1cc(C(F)(F)F)ccn1-c1c(Cl)cc(CF)cc1Cl | 121 to 122 °C
CNc1nc(NCc2ccc(NC(=O)C3CCN(Cc4ccccc4)CC3)cc2)c2ccc(C)cc2n1 | 128 °C
COc1ccc(C(=O)C=Cc2cccc([N+](=O)[O-])c2)c(OC)c1OC | 130 to 131 °C
O=C(c1cccs1)c1cnn2c(-c3cccc(-c4nnn(CCN5CCCC5)n4)c3)ccnc12 | 98 °C
CCOC(=O)C1=C(COCC2=CC(=O)N=N2)NC(C)=C(C(=O)OC)C1c1ccccc1Cl (stereo not drawn) | 207 °C
COc1ccc(C(OC(C)=O)c2sccc2C=O)cc1OC (stereo not drawn) | 91 to 92 °C
CCCCOc1ccc(S(=O)(=O)C2(C(=O)NO)CCN(Cc3cccc(OC)c3)CC2)cc1 | 137 °C
CCOCc1cc2ccc(OCc3ccccc3)cc2oc1=O | 122 to 124 °C
COc1ccc(OC)c2c1C(=O)c1c-2[nH]c2ccc(O)cc12 | > 260 °C
Cc1c(N2CC[C@H](N(C)C)C2)c(F)c(N)c2c(=O)c(C(=O)O)cn(C3CC3)c12 | 204 to 206 °C
CCCCC12CCC3=C(CCc4cc(OC)ccc43)C1=CCC2=O (stereo not drawn) | 53 to 55 °C
CCOC(Cc1ccc(OCCOC2c3ccccc3CCc3ccccc32)cc1)C(=O)O (stereo not drawn) | 148 to 150 °C
